From patent US20060084688A1, “Aromatic sulfone hydroxamic acid metalloprotease inhibitor” (priority 1997, published 2006) come the findings set out here.

The conditions of series [1]: for t1/2: Rat Intraveneous.
Series [2] has as its target recombinant human MMP-13 (Homo sapiens, UniProt P45452). The series is described as follows: biochemical. The note with it: Inhibition Table B.
Series [3] has as its target T1, recombinant human MMP-1 (Homo sapiens, UniProt P03956).
T1 construct: made in house; host or cells: transfected HT-1080 cells
T1 sequence (P03956 100-469): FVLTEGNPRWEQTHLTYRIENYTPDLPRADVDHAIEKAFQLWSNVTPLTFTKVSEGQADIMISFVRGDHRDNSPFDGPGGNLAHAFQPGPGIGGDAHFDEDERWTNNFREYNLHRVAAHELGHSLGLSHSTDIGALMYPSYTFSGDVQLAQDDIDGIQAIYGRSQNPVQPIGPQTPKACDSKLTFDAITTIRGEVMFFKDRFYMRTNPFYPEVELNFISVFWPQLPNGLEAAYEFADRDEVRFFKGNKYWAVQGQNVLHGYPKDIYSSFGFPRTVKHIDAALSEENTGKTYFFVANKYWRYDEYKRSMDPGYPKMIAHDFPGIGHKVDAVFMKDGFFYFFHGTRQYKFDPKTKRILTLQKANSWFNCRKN
The series is described as follows: biochemical. Particulars: Inhibition Table B.

Series [4] concerns the target T2, recombinant human MMP-2 (Homo sapiens, UniProt P08253).
T2 sequence (P08253 110-660): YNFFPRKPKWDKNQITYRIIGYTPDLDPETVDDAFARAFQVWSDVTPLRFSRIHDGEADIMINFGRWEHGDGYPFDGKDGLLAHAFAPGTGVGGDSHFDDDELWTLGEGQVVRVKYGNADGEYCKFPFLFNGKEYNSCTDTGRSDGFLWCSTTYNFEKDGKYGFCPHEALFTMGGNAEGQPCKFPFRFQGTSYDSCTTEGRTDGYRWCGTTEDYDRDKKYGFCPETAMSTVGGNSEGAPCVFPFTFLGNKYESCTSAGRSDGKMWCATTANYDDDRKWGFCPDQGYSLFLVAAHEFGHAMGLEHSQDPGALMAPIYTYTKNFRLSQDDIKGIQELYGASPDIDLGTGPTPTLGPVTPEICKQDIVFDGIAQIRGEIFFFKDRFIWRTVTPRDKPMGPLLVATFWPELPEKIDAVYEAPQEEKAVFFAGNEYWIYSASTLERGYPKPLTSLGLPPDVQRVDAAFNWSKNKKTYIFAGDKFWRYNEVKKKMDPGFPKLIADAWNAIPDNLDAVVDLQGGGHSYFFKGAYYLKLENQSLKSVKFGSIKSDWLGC
The series is described as follows: biochemical. Particulars: Inhibition Table B.

Structures can show the parent of a compound that is named as a salt. Where two headings read alike, the source gives them in different places.

As to `Cl.O=C(NO)C1(S(=O)(=O)c2ccc(Oc3ccc(C(F)(F)F)cc3)cc2)CCN(C2CC2)CC1` [Example 427, 1-cyclopropyl-N-hydroxy-4-[[4-[4-(trifluoromethyl)phenoxy]phenyl]sulfonyl]-4-piperidinecarboxamide, monohydrochloride], the t1/2 in series [1] (20 mpk) turned out to be 2.85 h.
For the compound `O=C(NO)C1(S(=O)(=O)c2ccc(Oc3ccc(C(F)(F)F)cc3)cc2)CCN(CCN2CCOCC2)CC1` [Example 388, N-hydroxy-1-[2-(4-morpholinyl)-ethyl]-4-[(4-(4-(trifluoromethyl)phenoxy]-phenyl]sulfonyl]-4-piperidinecarboxamide, dihydrochloride], the t1/2 in series [1] (20 mpk) was found to be 0.94 h.
Still for that read-out and setting: then `CC(C)c1ccc(Oc2ccc(S(=O)(=O)C3(C(=O)NO)CCOCC3)cc2)cc1` [Example 125, tetrahydro-N-hydroxy-4-[[4-[4-(1-methylethyl)phenoxy]phenyl]-sulfonyl]-2H-pyran-4-carboxamide], with 0.73 h; and `C#CCN1CCC(C(=O)NO)(S(=O)(=O)c2ccc(Oc3ccc(C)c(C)c3)cc2)CC1.Cl` [Example 43, 4-[[4-(3,4-Dimethylphenoxyl)phenyl]sulfonyl]-N-hydroxy-1-(2-propynyl)-4-piperidinecarboxamide, monhydrochloride], with 0.82 h.
In series [1] (20 mpk), `C#CCN1CCC(C(=O)NO)(S(=O)(=O)c2ccc(Oc3ccc(Cl)c(C)c3)cc2)CC1.Cl` [Example 81, 4-[(4-(4-chloro-3-methylphenoxy)phenyl]sulfonyl]-N-hydroxy-1-(2-propynyl)-4-piperidinecarboxamide, monohydrochloride] returned a t1/2 of 0.76 h.
For `Cl.O=C(NO)C1(S(=O)(=O)c2ccc(Oc3ccccc3)cc2)CCN(C2CC2)CC1` [Example 17, 1-cyclopropyl-N-hydroxy-4-[(4-phenoxyphenyl)sulfonyl]-4-piperidinecarboxamide], the “Blood Level @ 3 min” value in series [1] (rat, in vivo, 20 mg/kg) was found to be 63440 ng/mL. In series [1] (rat, in vivo, po, 20 mg/kg), the BA is reported as 35.9% and the “Blood Level @ 6 hr” value was determined as 135 ng/mL.
`CN1CCC(C(=O)NO)(S(=O)(=O)c2ccc(Sc3ccccc3)cc2)CC1.Cl` [Example 33, N-hydroxy-1-methyl-4-[[4-(phenylthio)phenyl]sulfonyl]-4-piperidinecarboxamide, monohydrochloride]: in series [1] (20 mpk), the t1/2 was 1.91 h.
On to `C#CCN1CCC(C(=O)NO)(S(=O)(=O)c2ccc(Oc3ccc(C(C)C)cc3)cc2)CC1.Cl` [Example 414, N-hydroxy-4-[[4-[4-(1-methylethyl)phenoxy]phenyl]sulfonyl]-1-(2-propynyl)-4-piperidinecarboxamide, monohdyrochloride], for which the t1/2 in series [1] (20 mpk) came to 0.73 h.
Same read-out and setting: then `NCC(=O)Nc1ccc(Sc2ccc(S(=O)(=O)C3(C(=O)NO)CCSCC3)cc2)cc1` [Example 118], with 1.85 h; and `COCCN1CCC(C(=O)NO)(S(=O)(=O)c2ccc(Oc3ccc(C(F)(F)F)cc3)cc2)CC1.Cl` [Example 418, N-hydroxy-1-(2-methoxyethyl)-4-[[4-[4-(trifluoromethyl)-phenoxy]phenyl]sulfonyl}-4-piperidinecarboxamide, monohydrochloride], with 2.42 h; and `O=C(NO)C1(S(=O)(=O)c2ccc(Oc3ccc(Cl)cc3)cc2)CCOCC1` [Example 100, 4-[[4-(4-chlorophenoxy)-phenyl]sulfonyl]-tetrahydro-N-hydroxy-2H-pyran-4-carboxamide], with 1.50 h.
The same measure, in the same setting: then `O=C(NO)C1(S(=O)(=O)c2ccc(Oc3ccccc3)cc2)CC[S+]([O-])CC1` (centres unmarked) [Example 111], with 0.65 h.
As for `Cl.O=C(NO)C1(S(=O)(=O)c2ccc(Oc3ccc(-n4cncn4)cc3)cc2)CCS(=O)(=O)CC1` [Example 53, Tetrahydro-N-hydroxy-4-[[4-[4-(1H-1,2,4-triazol-1-yl)phenoxy]-phenyl]-sulfonyl]-2H-thiopyran-4-carboxamide 1,1-dioxide, monohydrochloride], the t1/2 in series [1] (20 mpk) was found to be 0.97 h. Also, in series [1] (Rat Oral, 20 mpk, 6 hr), the “Blood Level @ 6 hr” value is recorded as “BLD”.
With `Cl.O=C(NO)C1(S(=O)(=O)c2ccc(Oc3ccc4c(c3)OCO4)cc2)CCN(C2CC2)CC1` [Example 421, 4-[[4-(1,3-benzodioxol-5-yloxy)phenyl]sulfonyl]-1-cyclopropyl-N-hydroxy-4-piperidinecarboxamide, monohydrochloride], in series [1] (rat, in vivo, po, 20 mg/kg), the “Blood Level @ 6 hr” value was 206 ng/mL.
The compound `O=C(NO)C1(S(=O)(=O)c2ccc(Oc3ccccc3)cc2)CCSCC1` [Example 109] had a t1/2 in series [1] (20 mpk) of 1.12 h.
Same read-out and setting: then `Cl.O=C(NO)C1(S(=O)(=O)c2ccc(Oc3ccc(OC(F)(F)F)cc3)cc2)CCNCC1` [Example 410, N-hydroxy-4-[[4-[(trifluoromethoxy)phenoxy]phenyl]sulfonyl]-4-piperidinecarboxamide, monohydrochloride], with 1.78 h.
Take `CCN1CCC(C(=O)NO)(S(=O)(=O)c2ccc(OCc3ccc(C(F)(F)F)cc3)cc2)CC1.Cl` [Example 438, 1-ethyl-N-hydroxy-4-[(4-[[4-[trifluoromethyl)phenyl]methoxy]-phenyl]sulfonyl]-4-piperidine-carboxamide, monohydrochloride]: the t1/2 in series [1] (20 mpk) turned out to be 2.14 h.
On the same count and under the same terms, then `O=C(O)CNc1ccc(Oc2ccc(S(=O)(=O)C3(C(=O)NO)CCSCC3)cc2)cc1` [Example 117, tetrahydro-N-hydroxy-4-[[4-[4-hydroxyphenylglycine)]phenyl]sulfonyl 2H-thionyran-4-carboxamide], with 0.78 h; and `Nc1ccc(Sc2ccc(S(=O)(=O)C3(C(=O)NO)CCSCC3)cc2)cc1` [Example 115, tetrahydro-N-hydroxy-4-[[4-[4-aminophenyl)thiophenoxy]phenyl]sulfonyl 2H-thionyran-4-carboxamide], with 1.36 h.
`Cl.O=C(NO)C1(S(=O)(=O)c2ccc(Sc3ccccc3)cc2)CCN(C2CC2)CC1` [Example 32, 1-cyclopropyl-N-hydroxy-4-[[4-(phenylthio)phenyl]sulfonyl]-4-piperidine carboxamide, monohydrochloride] showed a t1/2 in series [1] (20 mpk) of 1.03 h.
By IC50 is commonly meant the concentration at which inhibition is half-maximal. Take `CCN(CC)C(=O)C1CCN(c2ccc(S(=O)(=O)C3(C(=O)NO)CCOCC3)cc2)CC1` [Example 148]: the IC50 in series [2] is 31 nM; in series [3], greater than 10000 nM; in series [4], 2400 nM.
The corresponding values for `CC1CCN(C(=O)C2CCN(c3ccc(S(=O)(=O)C4(C(=O)NO)CCOCC4)cc3)CC2)CC1` [Example 190] are 10.6 nM, greater than 10000 nM and 220 nM.
Turning to `CCNC(=O)C1CCCN(c2ccc(S(=O)(=O)C3(C(=O)NO)CCOCC3)cc2)C1` (centres unmarked) [Example 143], the IC50 in series [2] was 23.9 nM; in series [3], greater than 10000 nM; in series [4], 900 nM.
`CN(C)[C@H]1CCN(C(=O)C2CCCN(c3ccc(S(=O)(=O)C4(C(=O)NO)CCOCC4)cc3)C2)C1` (some centres unmarked) [Example 167]: the IC50 is greater than 100 nM in series [2], greater than 10000 nM in series [3] and greater than 1000 nM in series [4].
As for `CCOC(=O)C1CCCN(C(=O)N2CCN(c3ccc(S(=O)(=O)C4(C(=O)NO)CCOCC4)cc3)CC2)C1` (centres unmarked) [Example 212], the values for the IC50 in series [2], in series [3] and in series [4] were 20 nM, greater than 10000 nM and 33 nM, respectively.
In the case of `CNC(=O)C1CCN(c2ccc(S(=O)(=O)C3(C(=O)NO)CCOCC3)cc2)CC1` [Example 130], the IC50 in series [2] was 45.9 nM; in series [3], greater than 10000 nM; in series [4], 57.7 nM.
The corresponding values for `O=C(NC1CCCCC1)C1CCN(c2ccc(S(=O)(=O)C3(C(=O)NO)CCOCC3)cc2)CC1` [Example 187] are 12.1 nM, greater than 10000 nM and 290 nM.
For `O=C(O)CNC(=O)C1CCCN(c2ccc(S(=O)(=O)C3(C(=O)NO)CCOCC3)cc2)C1` (centres unmarked) [Example 144], the IC50 in series [2] was 30.7 nM; in series [3] it was greater than 10000 nM; in series [4], 800 nM.
The matching figures for `O=C(C1CCCCCC1)N1CCN(c2ccc(S(=O)(=O)C3(C(=O)NO)CCOCC3)cc2)CC1` [Example 202]: 9.15 nM, greater than 10000 nM and 54 nM.
In the case of `Cc1ccc(-c2ccc(S(=O)(=O)C3(C(=O)NO)CCOCC3)cc2)cc1C` [Example 223], the IC50 in series [2] is less than 1 nM; in series [3], 1100 nM; in series [4], less than 1 nM.
Turning to `CCOC(=O)C1CCCN(C(=O)C2CCCN(c3ccc(S(=O)(=O)C4(C(=O)NO)CCOCC4)cc3)C2)C1` (centres unmarked) [Example 160], the IC50 in series [2] was 33.7 nM; in series [3] it was greater than 10000 nM; in series [4], 4700 nM.
